Assay results taken from patent publication US5362630A, “Isolation of pseudomonas salicylate hydroxlase and its use for the identification and quantitation of salicylate in body fluids” (Duke University, priority 1992, dated 1994).

Legend:
salicylate hydroxylase [1] = assay: Salicylate hydroxylase enzyme assay (NAD(P)H oxidation at 340 nm); format: biochemical, Pseudomonas
Protocol: Generally the reaction is carried out in a buffered solution (unless pH change or CO2 evolution is being measured). The buffer should offer near physiological conditions of pH and ionic strength for the enzyme. A potassium phosphate buffer, pH 7.6, at a concentration of 20 mM is preferred, although any pH from 6.5 to 8.9 and concentration from 5 to 100 mM is adequate. The sample may be added in any amount sufficient to trigger enzyme activity (if the salicylate is present in the sample) and the choice of sample size is discussed fully at a later time. From 1 to 40 μl per ml of total volume is convenient. Since the enzyme is generally available as a solution, it is conveniently added as such. About 10 μl of an enzyme solution containing 0.01 to 1 IU/ml is sufficient for most conditions, although the amount may be increased to speed up the reaction or decreased to slow the reaction down as needed. One IU (International Unit) is the amount of enzyme required to catalyze the disappearance of one μmole of NADH/min. NADH (or NADPH) may be present in a concentration of from about 10 to about 290 μM. Since the concentration of O2 in aqueous media is between 0.20 mM and 0.30 mM, it is not necessary to keep NAD(P)H concentration higher than […].
Enzyme Assay. The assay procedure for the enzyme and the definition of the enzyme were the same as that described in White-Stevens and Kamin (1970) except that EDTA and FAD were excluded in the assay mixture of the present work. The extinction coefficient of 6.22×10^3 M^-1 cm^-1 was used to convert the A340 change to micromoles of NADH oxidized.

salicylate hydroxylase [2] = conditions: cited from earlier work; for product inhibition of the enzyme: found by White-Stevens and Kamin
[3] = cited from earlier work

Row | Compound | inhibition of / interference with the enzyme activity (salicylate hydroxylase [1]) | also measured
1 | heparin | no effect | 
2 | NAD(P)^+ |  | product inhibition of the enzyme (salicylate hydroxylase [2]): no product inhibition
3 | O=C(O)CN(CCN(CC(=O)O)CC(=O)O)CC(=O)O [EDTA, ethylenediaminetetracetic acid] | do not inhibit | 
4 | O=C(O)c1ccccc1O [salicylate] |  | therapeutic range, serum or plasma level [3]: 5 to 40 mg/dL
5 | CC(=O)Nc1ccc(O)cc1 [acetaminophen] | do not interfere | 
6 | Oc1ccccc1O [catechol] |  | product inhibition of the enzyme (salicylate hydroxylase [2]): no product inhibition
7 | CC(=O)Oc1ccccc1C(=O)O [aspirin, acetylsalicylic acid] |  | overdose serum/plasma level (serious poison, coma and death) [3]: over 45 mg/dl
8 | O=C(O)CC(O)(CC(=O)O)C(=O)O [citrate] | do not inhibit | 
9 | O=C(O)c1ccccc1 [benzoate] |  | Km (salicylate hydroxylase [2]; substrate or pseudosubstrate of salicylate hydroxylase, read-out: Km of the enzyme): 2000 µM
10 | O=C(O)C(=O)O [oxalate] | do not inhibit | 
